For assay [1], the system named is oligodendrocyte precursor cells (OPCs). Briefly: Growth of OPCs on astrocyte-secreted extracellular matrix. Format: cell-based, mouse. The conditions noted are these: for mean process outgrowth of OPCs on astrocyte ECM: astrocytes treated 48 hours, then removed, OPCs plated on matrix; for Enhance OPC outgrowth: OPCs on inhibitory astrocyte matrix, significance class. The text has this: The process of remyelination requires oligodendrocyte lineage cells to undergo process outgrowth prior to their expression of mature myelin proteins for repair. Thus, process outgrowth in culture by cells of the oligodendrocyte lineage has been used as one surrogate for myelinating potential in vivo [Keough, M. B.; Rogers, J. A.; Zhang, P.; Jensen, S. K.; Stephenson, E. L.; Chen, T.; Hurlbert, M. G.; Lau, L. W.; Rawji, K. S.; Plemel, J. R. et al. An inhibitor of chondroitin sulfate proteoglycan synthesis promotes central nervous system remyelination. Nat. Commun. 2016, 7, 11312], since an oligodendrocyte needs to elaborate multiple protrusions emanating in several directions to contact many axons, and where these processes then compact around axons to form myelin segments. The presence of CSPGs in culture impairs the process outgrowth of OPCs, and this has been linked to reduced remyelination capacity in vivo [Keough, M. B.; Rogers, J. A.; Zhang, P.; Jensen, S. K.; Stephenson, E. L.; Chen, T.; Hurlbert, M. G.; Lau, L. W.; Rawji, K. S.; Plemel, J. R. et al. An inhibitor of chondroitin sulfate proteoglycan synthesis promotes central nervous system remyelination. Nat. Commun. 2016, 7, 11312]. It was reported previously that astrocytes in culture produce a plate-bound matrix abundant in CSPGs, that is left behind once astrocytes are removed from the plate, and this CSPG-containing matrix inhibits the outgrowth of plated OPCs [Keough, M. B. et al. An inhibitor of chondroitin sulfate proteoglycan synthesis promotes central nervous system remyelination. Nature communications 7, 11312 (2016)] (FIG. 7a). Thus, astrocytes were treated with test compounds for 48 hours and they were then removed from the cell culture plate leaving only their secreted ECM behind (FIG. 7a). When OPCs were plated on the astrocyte matrix, the extent of their process outgrowth over […] of observation was inhibited (FIG. 7b). […] OPCs growing in the absence of astrocyte ECM can reach a mean outgrowth around 300 μm (FIG. 7b,c). […] These compounds were: Ac-4,4-diF-GlcNAc 16 (Ac-4,4-diF-GlcNAc), fluorosamine 3 and its O1-deacetylated analog 10 (Ac-4-F-GlcNAcOH), anomeric O-propanoate 7, anomeric O-butanoate 8 (Ac-4-F-GlcNAcOBu), and the 4-fluorinated GalNAc derivative 13 (Ac-4-F-GalNAc) (FIG. 7c).
In brief, cortices from postnatal days 1-3 mouse brains were dissociated with papain digestion and then plated as a mixed culture for 7 days in a 37° C. incubator at 8.5% CO2 whereupon OPCs and microglia tended to be loosely attached on top of a monolayer of astrocytes; the OPCs and microglia were then shaken off when placed on an orbital shaker at 220 r.p.m. at 37° C. and 5% CO2 overnight. The media containing microglia and OPCs were collected and added to a 100 mm tissue culture dish and left at 37° C. and 5% CO2 for 30 min, to allow preferential adhesion of microglia. The media were collected again, now containing OPCs, and used as the OPC-enriched isolates for experiments. For the remaining adhered cells, largely astrocytes, these were removed with 0.25% trypsin and after centrifugation and washing, these astrocytes were plated at a density of 1.0×10^5 cells in flat bottom 96-well plates coated with 10 μg/ml poly-L-lysine. Cells were grown for 7 days at 37° C. and 5% CO2 in MGM and daily media changes. Astrocytes were carefully removed with EDTA treatment (0.2 g EDTA (Na4) per liter PBS, 30 minutes at 37° C. and 5% CO2) and mechanical dislodgement with a micropipetter. The remaining ECM left behind was covered with PBS at 4° C. until OPCs were seeded. Enriched OPCs from mixed glial cultures were seeded at a density of 5-10×10^4 cells per well in OPC media and grown at 37° C. and 8.5% CO2 for 18-24 h and then were fixed with 4% ice-cold paraformaldehyde at 4° C. for 10 min, rinsed with PBS, and stored at 4° C. until immunocytochemistry. […]

Another assay has as its system splenocytes. Kind of assay: Splenocyte thymidine proliferation assay (anti-CD3/anti-CD28). Format: cell-based, mouse. The conditions noted are these: for splenocyte proliferation: 25 μM, 48 hours; for Reduce T cell proliferation: activated splenocytes, significance class. As for the experimental part:
It was assessed whether the glucosamine analogs have immunomodulatory properties on splenocytes isolated in culture. T cells within the splenocyte pool were polyclonally activated with anti-CD3 and anti-CD28 antibodies in the presence of compounds for 48 hours, and proliferation was determined by the uptake of tritiated thymidine and expressed as counts per minute. The relative change in proliferation of treated versus control splenocytes was taken in order to rank the compounds across multiple independent experiments (FIG. 8a).
The spleens were isolated from 8-10-week-old female C57BL/6 mice and homogenized. The cells were isolated by Ficoll gradient and spun for 30 min at 1,800 r.p.m. The cell suspension was removed and the cells were washed once with PBS. The cell pellet was subsequently re-suspended in Roswell Park Memorial Institute media containing 10% fetal bovine serum, 1% penicillin/streptomycin, 1% sodium pyruvate and 1% L-glutamine. Trypan blue exclusion was used to count live cells, and the cells were plated at 2.5×10^5 cells per well in a round-bottom 96-well plate and activated with 1,000 ng/ml plate-bound anti-CD3 and 1,000 ng/ml anti-CD28 suspended in media to preferentially activate T lymphocytes. Compounds were added at final concentrations of 25 μM. The cells were kept at 37° C. and 5% CO2 for 30 h, after which 10 μl/well (1 μCi per well) of 3H-thymidine was added for 18 h. The cells containing thymidine were harvested onto filter mats using a cell harvester and mats were allowed to dry for 24 h. The results were read by liquid scintillation counts.

The text below walks through data of patent US12600740B2, “Fluorinated N-acetyl glucosamine analogs and xylose derivatives” (UTI Limited Partnership, priority 2018, dated 2026).

In the case of `CCCC(=O)OC1OC(COC(C)=O)[C@@H](F)[C@H](OC(C)=O)C1NC(C)=O` (mixture of isomers) [Compound 8, 2-Acetamido-3,6-di-O-acetyl-1-O-butanoyl-2,4-dideoxy-4-fluoro-α/β-D-glucopyranose], the “mean process outgrowth of OPCs on astrocyte ECM” value (“mean process outgrowth of OPCs” below) in assay [1] was “effective at improving mean outgrowth of OPCs”.

Turning to `CC(=O)NC1C(O)OC(COC(C)=O)[C@@H](F)[C@@H]1OC(C)=O` (mixture of isomers) [Compound 10], in assay [1], the “mean process outgrowth of OPCs” value is “effective at improving mean outgrowth of OPCs”.

Consider `CC(=O)NC1C(OC(C)=O)OC(COC(C)=O)[C@H](F)[C@@H]1OC(C)=O` (mixture of isomers) [Compound 13, 2-Acetamido-1,3,6-tri-O-acetyl-2,4-dideoxy-4-fluoro-α/β-D-galactopyranose], for which, in assay [1], the “mean process outgrowth of OPCs” value is reported as “effective at improving mean outgrowth of OPCs”.

In the case of `CC(=O)NC1C(OC(C)=O)OC(COC(C)=O)C(F)(F)[C@@H]1OC(C)=O` (mixture of isomers) [Compound 16, 2-Acetamido-1,3,6-tri-O-acetyl-2,4-dideoxy-4,4-difluoro-α/β-D-xylo-hexopyranose], the “mean process outgrowth of OPCs” value in assay [1] was “effective at improving mean outgrowth of OPCs”.

`CC(=O)N[C@H]1[C@H](OC(C)=O)O[C@H](COC(C)=O)[C@@H](OC(C)=O)[C@@H]1OC(C)=O` [Compound 1, reference compound]: the “Enhance OPC outgrowth” value in assay [1] is given as “n.s”. Besides, in the assay on splenocytes, the splenocyte proliferation result is given as “reduced splenocyte proliferation” and the “Reduce T cell proliferation” value is on record as “**** (****p < 0.0001)”.

Consider `CC(=O)NC1C(OC(C)=O)OC(COC(C)=O)[C@@H](F)C1OC(C)=O` (some centres unmarked) [Compound 3, reference compound], for which, in assay [1], the “Enhance OPC outgrowth” value is “** (**p < 0.01)” and the “mean process outgrowth of OPCs” value is “effective at improving mean outgrowth of OPCs”. Also, the “Reduce T cell proliferation” value with splenocytes is on record as “**** (****p < 0.0001)”.

Regarding `CCC(=O)OC1OC(COC(C)=O)[C@@H](F)[C@H](OC(C)=O)C1NC(C)=O` (stereo partly drawn) [Compound 7, 2-Acetamido-3,6-di-O-acetyl-2,4-dideoxy-4-fluoro-1-O-propanoyl-α/β-D-glucopyranose], the “mean process outgrowth of OPCs” value in assay [1] is recorded as “effective at improving mean outgrowth of OPCs”.

Turning to `CCCC(=O)OC[C@H]1OC(O)[C@H](NC(C)=O)[C@@H](OC(=O)CCC)[C@@H]1F` (stereo partly drawn) [Compound 12, 2-Acetamido-3,6-di-O-butanoyl-2,4-dideoxy-4-fluoro-α/β-3-D-glucopyranose], the “Enhance OPC outgrowth” value in assay [1] is “n.s”. For the same compound, in the assay on splenocytes, the splenocyte proliferation result is reported as “reduced splenocyte proliferation” and the “Reduce T cell proliferation” value is “** (**p < 0.01)”.
